Drawing on ChEMBL document CHEMBL1146082, “Development of a structural model for NF-kappaB inhibition of sesquiterpene lactones using self-organizing neural networks” (J Med Chem, 2006), this text covers IC100 for 73 compounds.

In this experiment the target is Transcription factor p65 (Homo sapiens) (UniProt Q04206). Put plainly: Inhibition of NF-kappaB DNA binding by EMSA. (In EMSA bound probe runs differently from free probe, usually more slowly.)
Chain of Transcription factor p65 (Homo sapiens) (Q04206 whole entry): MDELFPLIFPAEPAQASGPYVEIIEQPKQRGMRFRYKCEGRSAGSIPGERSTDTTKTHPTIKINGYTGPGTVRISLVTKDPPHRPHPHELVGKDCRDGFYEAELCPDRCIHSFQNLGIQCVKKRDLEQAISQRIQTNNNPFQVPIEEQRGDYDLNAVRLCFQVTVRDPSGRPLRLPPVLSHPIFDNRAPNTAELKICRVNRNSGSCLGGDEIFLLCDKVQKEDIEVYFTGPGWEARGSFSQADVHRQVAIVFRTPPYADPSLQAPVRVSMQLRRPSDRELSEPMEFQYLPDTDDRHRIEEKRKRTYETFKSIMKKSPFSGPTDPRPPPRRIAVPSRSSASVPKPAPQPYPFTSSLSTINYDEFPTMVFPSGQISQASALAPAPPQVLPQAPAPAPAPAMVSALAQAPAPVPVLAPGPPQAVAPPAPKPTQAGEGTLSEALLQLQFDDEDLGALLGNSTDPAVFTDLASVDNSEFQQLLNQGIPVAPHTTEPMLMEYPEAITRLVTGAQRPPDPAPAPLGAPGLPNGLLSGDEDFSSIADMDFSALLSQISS
With `C=C1C(=O)O[C@@H]2C[C@H](C)C3=CC(=O)[C@H](C)[C@@H]3C[C@H]12`, the IC100 was determined as 50 µM.

The compound `C=C(C)C(=O)O[C@H]1[C@H]2C(=C)C(=O)O[C@@H]2/C=C(\C)CC/C=C(/C=O)[C@@H]1O` returned an IC100 of 10 µM.

For `C=C(C)C(=O)O[C@H]1[C@H]2C(=C)C(=O)O[C@@H]2[C@@H](O)[C@@]2(CC/C=C(/C=O)[C@@H]1OC(C)=O)CO2`, the IC100 was 5 µM.

In turn, `C=C1C(=O)O[C@@H]2C3O[C@]3(C)CC/C=C(\C)CC[C@@H]12` (stereo partly drawn) had an IC100 of 20 µM.

For `C=C1C(=O)O[C@@H]2C[C@H](C)[C@@H]3CC(=O)C(C)=C3C[C@H]12`, the IC100 amounted to 50 µM.

Turning to `C=C1C(=O)O[C@H]2C/C(CO)=C/CC/C(COC(=O)C(C)CO)=C/C[C@H]12` (stereo partly drawn), the IC100 was 100 µM.

For `C=C1C(=O)O[C@H]2/C=C(\C)CC/C=C(\C)[C@@H](OC(=O)[C@@]3(C)O[C@H]3C)[C@H](O)[C@@H]12`, the IC100 came to 50 µM.

In the case of `C=C1C(=O)O[C@@H]2/C=C(/C)[C@]3(O)O[C@](C)(C[C@@H](OC(=O)C(C)C)[C@@H]12)C(=O)[C@@H]3OC`, the IC100 is 200 µM.

`C=C1C(=O)O[C@@H]2C[C@@]3(C)[C@H](O)CC=C(COC(=O)C(C)C)[C@@H]3C[C@H]12` registered an IC100 of 50 µM.

Compound `C=C1C(=O)O[C@@H]2[C@H]3C(C)=CC(=O)C3=C(C)CC[C@@H]12` yielded an IC100 of 50 µM.

Compound `C=C1C(=O)O[C@@H]2[C@H]3C(C)=CC[C@H](O)[C@]3(C)CC[C@@H]12` gave an IC100 of 300 µM.

On to `C=C1C(=O)O[C@@H]2C[C@@H](C)[C@@H]3[C@@H](OC(C)=O)C[C@@H](O)[C@@]3(C)[C@@H](O)[C@H]12`, for which the IC100 was determined as 200 µM.

Consider `C=C1C(=O)C[C@H]2C(=C)C(=O)O[C@@H]2/C=C(\COC(=O)C(C)C)CC[C@H]1OC`, for which the IC100 came to 25 µM.

With `C=C1C(=O)O[C@@H]2C[C@@H](C)[C@@H]3C=CC(=O)[C@@]3(C)[C@@H](O)[C@H]12`, the IC100 came to 10 µM.

On to `C=C1C(=O)O[C@@H]2[C@@H]3[C@@](C)(CC[C@@H]12)[C@@H](O)C[C@H]1O[C@@]31C`, for which the IC100 stood at 200 µM.

`C=C1[C@@H]2[C@H]3OC(=O)C(=C)[C@@H]3CC[C@](C)(O)[C@@H]2C[C@@H]1O`: the IC100 is 200 µM.

Compound `C=C1C(=O)O[C@H]2[C@H]1[C@@H](OC(=O)/C(C)=C/C)C/C(C)=C/C(=O)/C=C(/C)[C@@H]2O` yielded an IC100 of 10 µM.

Turning to `C=C1C(=O)O[C@H]2/C=C(\C)CC/C=C(\C)[C@@H](OC(=O)/C(C)=C/C)[C@H](O)[C@@H]12`, the IC100 worked out at 100 µM.

As for `C=C1C(=O)O[C@H]2C3=C(C(=O)C[C@@H]3C)[C@@H](C)CC[C@@H]12`, the IC100 is 20 µM.

In the case of `C=C1C(=O)O[C@@H]2C[C@@H](C)[C@@H]3C=CC(=O)[C@@]3(C)[C@H](OC(=O)C(C)CC)[C@H]12` (stereo partly drawn), the IC100 is 10 µM.

Regarding `C=C(C)C(=O)O[C@H]1C[C@@]2(C)OC(=CC2=O)/C(CO)=C\[C@H]2OC(=O)C(=C)[C@H]12`, the IC100 was determined as 20 µM.

Compound `C=C1C(=O)C=C2[C@H]1C[C@@H]1C(=C)C(=O)O[C@@H]1C[C@@H]2C` displayed an IC100 of 10 µM.

The compound `C=C1C(=O)O[C@H]2C/C(CO)=C/CC/C(COC(=O)C3(C)CO3)=C/C[C@H]12` (stereo partly drawn) gave an IC100 of 50 µM.

As to `C=C1C(=O)O[C@H]2[C@H]1[C@H](OC(=O)/C(C)=C\C)C[C@@]1(C)OC(=CC1=O)C(=C)[C@@H]2O`, the IC100 turned out to be 10 µM.

The compound `C[C@H]1C(=O)O[C@H]2C/C(CO)=C/CC/C(CO)=C/C[C@@H]21` showed an IC100 of 300 µM.

As to `CC[C@@H](C)[C@@]1(O)O[C@H]2C[C@@]3(C)OC(=CC3=O)/C(CO)=C\[C@H]3OC(=O)[C@@]1(C)C23` (stereo partly drawn), the IC100 was 100 µM.

Take `C=C(C)C(=O)O[C@H]1[C@H]2C(=C)C(=O)O[C@@H]2[C@@H](O)C(=C)CC/C=C(/C=O)[C@@H]1OC(C)=O`: the IC100 stood at 10 µM.

Turning to `C=C1C(=O)O[C@H]2CC(=C)[C@H](O)CC/C(C)=C/[C@@H](O)[C@H]12`, the IC100 stood at 50 µM.

Take `C=C1C(=O)O[C@@H]2[C@H]1[C@@H](OC(=O)[C@]1(C)O[C@@H]1C)C(=O)[C@@]1(C)C=CC[C@@](C)(O)[C@H]21`: the IC100 is 10 µM.

The compound `C=C1C(=O)O[C@H]2C/C(CO)=C/CC/C(COC(=O)C(C)CC)=C/C[C@H]12` (stereo partly drawn) came in with an IC100 of 50 µM.

On to `C=C(C)C(=O)O[C@@H]1/C=C(/C=O)CCC[C@@]2(CO2)[C@H](O)[C@H]2OC(=O)C(=C)[C@@H]21`, for which the IC100 stood at 5 µM.

Compound `C=C1C(=O)O[C@@H]2C[C@H](C)C3=C(C[C@H]12)[C@@H](C)CC3=O` had an IC100 of 20 µM.

`C=C(C)C(=O)O[C@H]1[C@H]2C(=C)C(=O)O[C@@H]2[C@@H](O)C(=C)CC/C=C(/C=O)[C@@H]1OC` had an IC100 of 50 µM.

In turn, `C=C1C(=O)O[C@@H]2[C@H]3C(C)=C(Cl)C(=O)C3=C(C)CC[C@@H]12` came in with an IC100 of 20 µM.

The compound `C=C(C)C(=O)O[C@@H]1CC(C)=C2C(=O)C=C(C)[C@@H]2[C@H]2OC(=O)C(=C)[C@@H]21` displayed an IC100 of 10 µM.

With `C=C1[C@H](O)C[C@@H](O)[C@]2(C)CC[C@H]3C(=C)C(=O)O[C@@H]3[C@@H]12`, the IC100 came out at 200 µM.

Compound `CC[C@@H](C)[C@@]1(O)O[C@H]2C[C@@]3(C)OC(=CC3=O)/C(COC(C)=O)=C\[C@H]3OC(=O)[C@@]1(C)C23` (stereo partly drawn) had an IC100 of 5 µM.

In turn, `C=C(C)C(=O)O[C@H]1[C@H]2C(=C)C(=O)O[C@@H]2/C=C(\COC(C)=O)CC/C=C(/C=O)[C@@H]1O` yielded an IC100 of 5 µM.

On to `C=C1C(=O)O[C@H]2[C@H]1CCC(C)=C1C(=O)[C@H]3O[C@@]3(C)[C@@H]12`, for which the IC100 turned out to be 5 µM.

Turning to `C=C1CCC=C(C)[C@@]2(O)[C@H](OC(=O)[C@]3(C)O[C@@H]3C)[C@@H]3[C@@H](OC(=O)[C@@H]3C)[C@H]12`, the IC100 came out at 200 µM.

Compound `C=C1C(=O)O[C@H]2C/C(CO)=C/CC/C(COC(=O)C(C)C)=C/C[C@H]12` showed an IC100 of 50 µM.

With `C=C1C(=O)O[C@H]2C[C@H](C)C3=CC(=O)[C@H](C)C3C[C@H]12` (stereo partly drawn), the IC100 turned out to be 20 µM.

For the compound `C=C1C(=O)O[C@@H]2[C@H]3C(C)=CC(=O)C3=C(C)C[C@@H](OC(=O)[C@]3(C)O[C@@H]3C)[C@@H]12`, the IC100 was 20 µM.

Compound `C=C1[C@H](O)C[C@H](O)[C@]2(C)CC[C@H]3C(=C)C(=O)O[C@@H]3[C@@H]12` came in with an IC100 of 100 µM.

Turning to `C=C1C(=O)O[C@H]2C/C(CO)=C/CC/C(COC(=O)C(C)C(C)O)=C/C[C@H]12` (stereo partly drawn), the IC100 worked out at 50 µM.

In turn, `C=C1C(=O)O[C@@H]2/C=C(\COC(=O)C(C)C)CC/C=C(\CO)C(=O)C[C@@H]12` came in with an IC100 of 12.5 µM.

Regarding `C=C(C)C(=O)OC/C1=C\C[C@@H]2C(=C)C(=O)O[C@H]2C/C(CO)=C/CC1`, the IC100 came out at 50 µM.

In turn, `C=C1C(=O)C[C@H]2C(=C)C(=O)O[C@@H]2/C=C(\COC(=O)C(C)C)CC[C@@H]1OC` yielded an IC100 of 25 µM.

As to `C[C@@H]1C[C@H]2OC(=O)[C@@H](C)[C@H]2[C@H](O)[C@]2(C)C(=O)C=C[C@@H]12`, the IC100 was 200 µM.

Compound `C=C1C(=O)O[C@@H]2C[C@@]3(C)[C@H](OC(C)=O)CC[C@](O)(COC(=O)C(C)C)[C@@H]3C[C@H]12` displayed an IC100 of 100 µM.

Compound `C=C(C)C(=O)O[C@H]1C/C(C)=C/C(=O)/C=C(/C)[C@H](O)[C@H]2OC(=O)C(=C)[C@@H]21` had an IC100 of 10 µM.

Regarding `C=C1C(=O)O[C@@H]2C[C@H](C)[C@@]3(O)CC[C@@](C)(C[C@@H](OC(=O)C(C)C)[C@@H]12)O3`, the IC100 was determined as 200 µM.

For `C=C1C(=O)O[C@@H]2/C=C(\C)CC/C=C(\C)CC[C@@H]12`, the IC100 stood at 50 µM.

On to `C=C1C(=O)O[C@H]2[C@H]1[C@@H](OC(=O)/C(C)=C/C)C/C(C)=C\[C@@]1(OC)C=C(C)[C@@H]2O1`, for which the IC100 was found to be 10 µM.

As to `C=C(C)C(=O)O[C@@H]1C[C@]2(C)CC[C@@](O)(O2)/C(C)=C\[C@H]2OC(=O)C(=C)[C@@H]21`, the IC100 stood at 50 µM.

The compound `C=C1C[C@@H]2OC(=O)C(=C)[C@H]2[C@H](O)/C=C(\C)CCC1=O` displayed an IC100 of 50 µM.

Regarding `C=C1C(=O)O[C@@H]2/C=C(/C)C3=CC(=O)[C@@](C)(C[C@@H](OC(=O)/C(C)=C/C)[C@@H]12)O3`, the IC100 was 5 µM.

`C=C[C@]1(C)CC[C@H]2C(=C)C(=O)O[C@@H]2[C@H]1C(=C)C` displayed an IC100 of 100 µM.

In turn, `C=C1C(=O)O[C@@H]2/C=C(/CO)[C@@]3(O)CC[C@@](C)(C[C@@H](OC(=O)/C(C)=C\C)[C@@H]12)O3` yielded an IC100 of 20 µM.

The compound `C=C(C)C(=O)O[C@@H]1/C=C(\C=O)CCCC(=C)[C@H](O)[C@H]2OC(=O)C(=C)[C@@H]21` registered an IC100 of 10 µM.

`C=C(C)C(=O)O[C@@H]1C[C@]2(C)CC[C@@](OC)(O2)/C(C)=C\[C@H]2OC(=O)C(=C)[C@@H]21` showed an IC100 of 200 µM.

`C=C1C(=O)O[C@H]2C[C@]3(C)O[C@@H]3C[C@@H](OC(C)=O)C3=C[C@@H](OC3=O)[C@H]12` showed an IC100 of 10 µM.

`C=C(C)C(=O)O[C@@H]1/C=C(\C=O)[C@H](OC)CCC(=C)[C@H](O)[C@H]2OC(=O)C(=C)[C@@H]21` had an IC100 of 10 µM.

Take `C=C(C)C(=O)O[C@@H]1/C=C(\C=O)CCC[C@@]2(CO2)[C@H](O)[C@H]2OC(=O)C(=C)[C@@H]21`: the IC100 was found to be 5 µM.

Regarding `C=C1C(=O)O[C@@H]2/C=C(/CO)C3=CC(=O)[C@@](C)(C[C@H](OC(=O)/C(C)=C\C)[C@@H]12)O3`, the IC100 was 5 µM.

Regarding `C=C1C(=O)O[C@H]2[C@H]1[C@H](OC(=O)[C@@]1(C)O[C@H]1C)[C@@H](OC(C)=O)/C(C(=O)OC)=C\CC[C@@]1(C)O[C@H]21`, the IC100 turned out to be 10 µM.

Consider `C=C(C)C(=O)O[C@@H]1C[C@@](C)(O)[C@@H]2C(=O)C=C(C)[C@@H]2[C@H]2OC(=O)C(=C)[C@@H]21`, for which the IC100 was 20 µM.

`C=C1C(=O)O[C@@H]2/C=C(\C)CC/C=C(/C)CC[C@@]12O` had an IC100 of 10 µM.

With `C=C1C(=O)O[C@@H]2/C=C(\C)[C@H](OC(C)=O)C/C=C(/C)CC[C@@H]12`, the IC100 turned out to be 50 µM.

`C=C1C(=O)O[C@H]2/C=C(\C)[C@@H](O)CC/C(C)=C/[C@@H](O)[C@H]12`: the IC100 was determined as 200 µM.

On to `C=C1C(=O)O[C@H]2C[C@H](C)C3=C(C[C@H]12)[C@@H](C)CC3=O`, for which the IC100 is 20 µM.

For `C=C1C(=O)O[C@H]2C[C@@H](C)[C@@H]3C=CC(=O)[C@@]3(C)[C@H](O)[C@H]12`, the IC100 turned out to be 20 µM.

For the compound `C=C1C(=O)O[C@]23C[C@H]1CCC(COC(C)=O)=C2C(=O)C=C3C`, the IC100 amounted to 100 µM.
